Laboratory results from ChEMBL document CHEMBL1795227, “Methanesulfonamido-cyclohexylamine derivatives of 2,4-diaminopyrimidine as potent ALK inhibitors” (Bioorg Med Chem Lett, 2011).
Activity calls are given as the source filed them. No cut-off for these calls is given here.

Experiments:
[1] = molecular target: Aurora kinase C (Homo sapiens) (UniProt Q9UQB9); assay: Inhibition of AURKC at 1 uM
[2] = tested on: Mast/stem cell growth factor receptor Kit (Homo sapiens), P10721 [D816V]; details: 1 uM
Chain of Mast/stem cell growth factor receptor Kit (Homo sapiens), P10721 [D816V] (P10721 whole entry D816V): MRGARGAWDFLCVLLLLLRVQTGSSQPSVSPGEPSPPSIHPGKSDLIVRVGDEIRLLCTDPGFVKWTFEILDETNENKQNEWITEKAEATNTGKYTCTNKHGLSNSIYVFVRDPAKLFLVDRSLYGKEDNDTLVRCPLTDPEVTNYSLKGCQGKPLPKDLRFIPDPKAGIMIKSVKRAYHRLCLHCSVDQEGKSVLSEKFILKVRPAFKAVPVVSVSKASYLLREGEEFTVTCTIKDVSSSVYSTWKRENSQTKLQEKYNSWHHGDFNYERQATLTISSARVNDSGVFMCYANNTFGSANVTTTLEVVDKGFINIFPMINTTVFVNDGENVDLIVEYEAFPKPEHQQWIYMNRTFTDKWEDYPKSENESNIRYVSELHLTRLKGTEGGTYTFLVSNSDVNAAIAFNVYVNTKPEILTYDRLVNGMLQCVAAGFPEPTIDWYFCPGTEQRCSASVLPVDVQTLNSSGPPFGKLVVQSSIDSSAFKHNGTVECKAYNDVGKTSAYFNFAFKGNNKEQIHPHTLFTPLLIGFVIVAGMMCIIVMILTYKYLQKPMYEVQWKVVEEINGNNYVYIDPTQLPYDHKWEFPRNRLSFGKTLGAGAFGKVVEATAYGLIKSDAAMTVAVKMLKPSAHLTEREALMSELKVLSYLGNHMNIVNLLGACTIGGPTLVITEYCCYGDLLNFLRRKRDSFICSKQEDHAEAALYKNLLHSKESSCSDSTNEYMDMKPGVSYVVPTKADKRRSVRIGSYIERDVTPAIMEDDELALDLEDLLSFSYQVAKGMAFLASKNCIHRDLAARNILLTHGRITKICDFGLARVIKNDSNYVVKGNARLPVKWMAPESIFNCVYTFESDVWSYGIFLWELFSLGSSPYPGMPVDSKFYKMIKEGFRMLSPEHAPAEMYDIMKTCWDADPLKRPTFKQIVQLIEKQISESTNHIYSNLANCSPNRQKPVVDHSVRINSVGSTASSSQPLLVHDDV
Description: Inhibition of KIT D816V at 1 uM

[3] = molecular target: Fibroblast growth factor receptor 3 (Homo sapiens) (UniProt P22607); details: 1 uM
Description: Inhibition of FGFR3 at 1 uM

[4] = molecular target: Hepatocyte growth factor receptor (Homo sapiens) (UniProt P08581); assay: Inhibition of MET at 1 uM
[5] = molecular target: Mitogen-activated protein kinase 1 (Homo sapiens) (UniProt P28482); assay: Inhibition of ERK2 at 1 uM
[6] = molecular target: Cyclin-dependent kinase 2 (Homo sapiens) (UniProt P24941); assay: Inhibition of CDK2 at 1 uM
[7] = molecular target: Proto-oncogene tyrosine-protein kinase receptor Ret (Homo sapiens) (UniProt P07949); assay: Inhibition of RET at 1 uM
Chain of Proto-oncogene tyrosine-protein kinase receptor Ret (Homo sapiens) (P07949 whole entry): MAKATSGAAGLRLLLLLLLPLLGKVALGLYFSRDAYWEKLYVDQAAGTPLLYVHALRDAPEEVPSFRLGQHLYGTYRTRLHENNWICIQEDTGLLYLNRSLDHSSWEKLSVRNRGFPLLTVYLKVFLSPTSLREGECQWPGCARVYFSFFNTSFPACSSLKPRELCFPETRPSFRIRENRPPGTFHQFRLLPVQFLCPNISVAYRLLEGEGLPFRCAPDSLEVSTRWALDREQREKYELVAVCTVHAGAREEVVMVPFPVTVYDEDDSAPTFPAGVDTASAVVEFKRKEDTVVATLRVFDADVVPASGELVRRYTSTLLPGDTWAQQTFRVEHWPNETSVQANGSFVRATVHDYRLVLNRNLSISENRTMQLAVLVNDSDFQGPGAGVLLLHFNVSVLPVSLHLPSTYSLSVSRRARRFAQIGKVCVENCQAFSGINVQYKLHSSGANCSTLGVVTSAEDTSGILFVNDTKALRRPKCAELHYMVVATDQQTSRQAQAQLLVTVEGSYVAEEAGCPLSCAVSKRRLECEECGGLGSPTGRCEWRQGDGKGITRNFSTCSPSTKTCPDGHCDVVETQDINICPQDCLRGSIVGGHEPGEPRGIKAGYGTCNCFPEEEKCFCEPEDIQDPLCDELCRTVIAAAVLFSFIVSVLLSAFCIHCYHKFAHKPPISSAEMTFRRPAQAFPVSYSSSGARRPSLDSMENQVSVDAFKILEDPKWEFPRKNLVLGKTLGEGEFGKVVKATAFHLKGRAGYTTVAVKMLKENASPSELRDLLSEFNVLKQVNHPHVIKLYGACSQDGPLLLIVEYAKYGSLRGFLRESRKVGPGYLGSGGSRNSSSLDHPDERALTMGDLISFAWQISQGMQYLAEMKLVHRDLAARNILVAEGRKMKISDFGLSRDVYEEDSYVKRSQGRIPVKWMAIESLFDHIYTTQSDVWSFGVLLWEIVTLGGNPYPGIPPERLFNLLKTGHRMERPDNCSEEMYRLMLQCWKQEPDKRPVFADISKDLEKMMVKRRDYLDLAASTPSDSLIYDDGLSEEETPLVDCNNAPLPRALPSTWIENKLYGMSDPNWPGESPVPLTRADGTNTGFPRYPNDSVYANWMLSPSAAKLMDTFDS

[8] = molecular target: Aurora kinase B (Homo sapiens) (UniProt Q96GD4); assay: Inhibition of AURKB at 1 uM
[9] = molecular target: Aurora kinase A (Homo sapiens) (UniProt O14965); assay: Inhibition of AURKA at 1 uM
[10] = molecular target: Epidermal growth factor receptor (Homo sapiens) (UniProt P00533); assay: Inhibition of EGFR at 1 uM
[11] = molecular target: Mitogen-activated protein kinase 12 (Homo sapiens) (UniProt P53778); assay: Inhibition of p38 gamma at 1 uM
Chain of Mitogen-activated protein kinase 12 (Homo sapiens) (P53778 whole entry): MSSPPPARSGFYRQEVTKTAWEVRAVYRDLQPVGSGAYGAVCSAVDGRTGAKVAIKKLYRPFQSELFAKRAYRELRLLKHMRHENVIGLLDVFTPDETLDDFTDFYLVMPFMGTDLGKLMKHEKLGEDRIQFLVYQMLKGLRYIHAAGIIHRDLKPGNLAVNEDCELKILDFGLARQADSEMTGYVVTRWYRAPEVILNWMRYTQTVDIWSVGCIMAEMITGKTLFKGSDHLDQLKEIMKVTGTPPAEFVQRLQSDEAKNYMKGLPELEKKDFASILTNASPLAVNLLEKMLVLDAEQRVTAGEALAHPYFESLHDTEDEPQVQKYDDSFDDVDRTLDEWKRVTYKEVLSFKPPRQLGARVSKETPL

[12] = molecular target: Tyrosine-protein kinase Lck (Homo sapiens) (UniProt P06239); assay: Inhibition of LCK at 1 uM
Chain of Tyrosine-protein kinase Lck (Homo sapiens) (P06239 2-509 limits assumed): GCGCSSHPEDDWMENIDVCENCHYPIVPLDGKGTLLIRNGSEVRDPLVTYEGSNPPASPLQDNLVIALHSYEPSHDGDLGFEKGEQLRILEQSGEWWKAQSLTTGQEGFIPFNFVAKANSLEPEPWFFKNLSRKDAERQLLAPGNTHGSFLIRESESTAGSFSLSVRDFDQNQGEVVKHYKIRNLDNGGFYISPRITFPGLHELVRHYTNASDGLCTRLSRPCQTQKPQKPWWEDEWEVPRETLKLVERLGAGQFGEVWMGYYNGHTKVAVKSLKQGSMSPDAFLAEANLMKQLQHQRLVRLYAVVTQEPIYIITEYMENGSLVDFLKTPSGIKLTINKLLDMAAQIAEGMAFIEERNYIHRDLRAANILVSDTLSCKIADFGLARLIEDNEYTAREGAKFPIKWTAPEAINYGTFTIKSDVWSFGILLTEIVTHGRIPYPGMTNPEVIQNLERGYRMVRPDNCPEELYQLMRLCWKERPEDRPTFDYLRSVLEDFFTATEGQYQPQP

[13] = molecular target: RAF proto-oncogene serine/threonine-protein kinase (Homo sapiens) (UniProt P04049); assay: Inhibition of RAF1 at 1 uM
[14] = molecular target: Non-receptor tyrosine-protein kinase TYK2 (Homo sapiens) (UniProt P29597); assay: Inhibition of TYK2 domain 2 at 1 uM
Chain of Non-receptor tyrosine-protein kinase TYK2 (Homo sapiens) (P29597 whole entry, the tested form may be a part): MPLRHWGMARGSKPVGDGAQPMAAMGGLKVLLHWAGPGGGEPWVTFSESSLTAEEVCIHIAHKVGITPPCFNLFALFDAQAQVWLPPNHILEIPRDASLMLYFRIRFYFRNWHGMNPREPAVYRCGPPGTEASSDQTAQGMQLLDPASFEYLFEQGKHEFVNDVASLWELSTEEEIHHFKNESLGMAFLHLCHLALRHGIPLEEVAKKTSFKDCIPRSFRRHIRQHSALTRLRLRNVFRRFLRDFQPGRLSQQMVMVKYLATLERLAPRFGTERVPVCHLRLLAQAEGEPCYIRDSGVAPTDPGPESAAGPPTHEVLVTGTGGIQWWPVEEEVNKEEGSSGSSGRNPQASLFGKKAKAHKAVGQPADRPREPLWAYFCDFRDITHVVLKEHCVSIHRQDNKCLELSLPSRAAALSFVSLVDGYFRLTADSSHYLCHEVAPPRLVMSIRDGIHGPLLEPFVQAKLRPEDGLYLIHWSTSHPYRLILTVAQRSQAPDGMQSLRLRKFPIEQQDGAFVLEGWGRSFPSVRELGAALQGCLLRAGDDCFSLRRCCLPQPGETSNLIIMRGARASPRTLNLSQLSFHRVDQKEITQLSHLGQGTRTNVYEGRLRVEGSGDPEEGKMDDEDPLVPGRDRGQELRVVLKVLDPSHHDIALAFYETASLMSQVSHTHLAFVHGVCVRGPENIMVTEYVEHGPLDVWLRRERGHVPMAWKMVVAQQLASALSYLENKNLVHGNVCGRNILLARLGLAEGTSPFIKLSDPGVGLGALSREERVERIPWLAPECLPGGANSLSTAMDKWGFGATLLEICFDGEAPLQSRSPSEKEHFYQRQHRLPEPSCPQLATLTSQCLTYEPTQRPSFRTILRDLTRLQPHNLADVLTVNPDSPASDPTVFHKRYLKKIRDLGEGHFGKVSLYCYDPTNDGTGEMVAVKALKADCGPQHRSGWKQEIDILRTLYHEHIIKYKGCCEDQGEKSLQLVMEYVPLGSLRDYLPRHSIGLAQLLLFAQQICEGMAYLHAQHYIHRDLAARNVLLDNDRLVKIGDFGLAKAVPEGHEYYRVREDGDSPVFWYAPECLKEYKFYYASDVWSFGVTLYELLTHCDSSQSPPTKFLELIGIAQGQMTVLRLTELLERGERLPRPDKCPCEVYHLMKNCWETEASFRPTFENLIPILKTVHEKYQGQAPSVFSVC

[15] = molecular target: Serine/threonine-protein kinase pim-1 (Homo sapiens) (UniProt P11309); assay: Inhibition of PIM1 at 1 uM
Chain of Serine/threonine-protein kinase pim-1 (Homo sapiens) (P11309 whole entry, looked up): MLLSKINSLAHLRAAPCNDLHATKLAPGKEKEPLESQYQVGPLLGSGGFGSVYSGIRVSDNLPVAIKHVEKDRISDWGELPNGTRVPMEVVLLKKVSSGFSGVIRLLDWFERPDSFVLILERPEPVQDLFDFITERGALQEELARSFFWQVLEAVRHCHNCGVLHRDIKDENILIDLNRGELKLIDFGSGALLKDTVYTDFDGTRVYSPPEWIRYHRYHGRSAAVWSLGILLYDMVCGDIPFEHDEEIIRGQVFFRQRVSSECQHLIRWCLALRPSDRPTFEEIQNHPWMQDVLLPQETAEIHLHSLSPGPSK

[16] = molecular target: ALK tyrosine kinase receptor (Homo sapiens, UniProt Q9UM73); details: 1 uM
Description: Inhibition of ALK at 1 uM

[17] = molecular target: Insulin-like growth factor 1 receptor (Homo sapiens) (UniProt P08069); assay: Inhibition of IGF1R at 1 uM
Mus musculus [18] = assay: Toxicity in mouse assessed as body weight loss at 30 mg/kg, po bid; type: organism-based; set-up: dose 30 mg/kg, route oral; details: in vivo
[19] = Drug level in tumor of Karpas-299 cells xenografted mouse at 30 mg/kg, po administered as single dose measured after 6 hrs; type: ADME, organism-based, Neoplasm; set-up: dose 30 mg/kg, route oral; details: read-out: Drug uptake
KARPAS-299 [20] = assay: Antitumor activity against human KARPAS299 cells xenografted in mouse assessed as tumor growth inhibition at 55 mg/kg, po bid; type: functional; details: read-out: GI
[21] = Plasma concentration in Karpas-299 cells xenografted mouse at 30 mg/kg, po administered as single dose measured after 6 hrs; type: ADME, organism-based; set-up: dose 30 mg/kg, route oral
[22] = Volume of distribution in Sprague-Dawley rat at 1 mg/kg, iv; type: ADME, organism-based; set-up: dose 1 mg/kg, route intravenous; details: in vivo
[23] = Half life in CD1 mouse at 10 mg/kg, po; type: ADME, organism-based; set-up: dose 10 mg/kg, route oral; details: in vivo
[24] = Drug level in tumor of Karpas-299 cells xenografted mouse at 30 mg/kg, po administered as single dose measured after 2 hrs; type: ADME, organism-based, Neoplasm; set-up: dose 30 mg/kg, route oral; details: read-out: Drug uptake
Mus musculus [25] = assay: Toxicity in mouse assessed as body weight loss at 55 mg/kg, po bid; type: organism-based; set-up: dose 55 mg/kg, route oral; details: in vivo
[26] = Plasma concentration in Karpas-299 cells xenografted mouse at 30 mg/kg, po administered as single dose measured after 12 hrs; type: ADME, organism-based; set-up: dose 30 mg/kg, route oral
[27] = Plasma concentration in Karpas-299 cells xenografted mouse at 30 mg/kg, po administered as single dose measured after 2 hrs; type: ADME, organism-based; set-up: dose 30 mg/kg, route oral
[28] = AUC (0 to t) in CD1 mouse at 1 mg/kg, iv; type: ADME, organism-based; set-up: dose 1 mg/kg, route intravenous; details: plasma
[29] = Clearance in CD1 mouse at 1 mg/kg, iv; type: ADME, organism-based; set-up: dose 1 mg/kg, route intravenous; details: in vivo
KARPAS-299 [30] = assay: Antitumor activity against human KARPAS299 cells xenografted in mouse assessed as tumor growth inhibition at 30 mg/kg, po bid; type: functional; details: read-out: GI
Mus musculus [31] = assay: Inhibition of NPM-ALK autophosphorylation in Karpas-299 cells xenografted mouse at 30 mg/kg, po administered as single dose measured after 2 hrs; type: functional; details: KARPAS-299, 2 h
[32] = Cmax in Sprague-Dawley rat at 5 mg/kg, po; type: ADME, organism-based; set-up: dose 5 mg/kg, route oral; details: in vivo
[33] = Oral bioavailability in CD1 mouse at 10 mg/kg; type: ADME, organism-based; details: in vivo
[34] = Drug level in tumor of Karpas-299 cells xenografted mouse at 30 mg/kg, po administered as single dose measured after 12 hrs; type: ADME, organism-based, Neoplasm; set-up: dose 30 mg/kg, route oral; details: read-out: Drug uptake
[35] = AUC (0 to t) in Sprague-Dawley rat at 1 mg/kg, iv; type: ADME, organism-based; set-up: dose 1 mg/kg, route intravenous; details: plasma
[36] = Oral bioavailability in Sprague-Dawley rat at 5 mg/kg; type: ADME, organism-based; details: in vivo
[37] = Volume of distribution in CD1 mouse at 1 mg/kg, iv; type: ADME, organism-based; set-up: dose 1 mg/kg, route intravenous; details: in vivo
[38] = Cmax in CD1 mouse at 10 mg/kg, po; type: ADME, organism-based; set-up: dose 10 mg/kg, route oral; details: in vivo
[39] = Clearance in Sprague-Dawley rat at 1 mg/kg, iv; type: ADME, organism-based; set-up: dose 1 mg/kg, route intravenous; details: in vivo
[40] = AUC (0 to t) in CD1 mouse at 10 mg/kg, po; type: ADME, organism-based; set-up: dose 10 mg/kg, route oral; details: plasma
[41] = Tmax in CD1 mouse at 10 mg/kg, po; type: ADME, organism-based; set-up: dose 10 mg/kg, route oral; details: in vivo
[42] = Half life in CD1 mouse at 1 mg/kg, iv; type: ADME, organism-based; set-up: dose 1 mg/kg, route intravenous; details: in vivo
[43] = Tmax in Sprague-Dawley rat at 5 mg/kg, po; type: ADME, organism-based; set-up: dose 5 mg/kg, route oral; details: in vivo
[44] = Half life in Sprague-Dawley rat at 1 mg/kg, iv; type: ADME, organism-based; set-up: dose 1 mg/kg, route intravenous; details: in vivo
Mus musculus [45] = assay: Toxicity in mouse assessed as overt signs at 55 mg/kg, po bid; type: organism-based; set-up: dose 55 mg/kg, route oral; details: in vivo
[46] = AUC (0 to t) in Sprague-Dawley rat at 5 mg/kg, po; type: ADME, organism-based; set-up: dose 5 mg/kg, route oral; details: plasma
Mus musculus [47] = assay: Inhibition of NPM-ALK autophosphorylation in Karpas-299 cells xenografted mouse at 30 mg/kg, po administered as single dose measured after 6 hrs; type: functional, organism-based; set-up: dose 30 mg/kg
Mus musculus [48] = assay: Toxicity in mouse assessed as overt signs at 30 mg/kg, po bid; type: organism-based; set-up: dose 30 mg/kg, route oral; details: in vivo

Chain of Aurora kinase C (Homo sapiens) (Q9UQB9 whole entry): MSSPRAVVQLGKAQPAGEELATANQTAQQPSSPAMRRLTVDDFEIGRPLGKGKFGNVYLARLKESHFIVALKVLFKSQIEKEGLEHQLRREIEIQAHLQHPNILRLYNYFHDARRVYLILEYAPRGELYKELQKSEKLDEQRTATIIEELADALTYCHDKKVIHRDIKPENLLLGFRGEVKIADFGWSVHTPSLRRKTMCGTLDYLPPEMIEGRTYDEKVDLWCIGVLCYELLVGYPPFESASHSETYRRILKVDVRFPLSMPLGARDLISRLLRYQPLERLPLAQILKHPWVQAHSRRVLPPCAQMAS

For `COCCN1CCc2cc(Nc3ncc(Cl)c(N[C@@H]4CCCC[C@H]4N(C)S(C)(=O)=O)n3)c(OC)cc2CC1`, the inhibition [1] was < 65%, the inhibition [2] was 100% and the inhibition [3] was 100%. For the same compound, the inhibition [4] was < 65%, the inhibition [5] was < 65% and the inhibition [6] was < 65%. The inhibition [7] was < 65%, the inhibition [8] was < 65% and the inhibition [9] was < 65%. The inhibition [10] was 89%, the inhibition [11] was < 65% and the inhibition [12] was < 65%. For the same compound, the inhibition [13] was < 65%, the inhibition [14] was < 65% and the inhibition [15] was 90%. For the same compound, the inhibition [16] was 100% and the inhibition [17] was 73%.
With `COCCN1CCc2cc(Nc3ncc(Cl)c(N[C@@H]4CCCC[C@H]4NS(C)(=O)=O)n3)c(OC)cc2CC1` the inhibition [1] was < 65%, the inhibition [2] was 97% and the inhibition [3] was < 65%. For the same compound, the inhibition [4] was < 65%, the Activity (Mus musculus [18]) was “Non-toxic” and the concentration at 6 h [19] was 602 ng/g. The inhibition in vivo at 55 mg/kg (KARPAS-299 [20]) was 54%, the concentration at 6 h [21] was 3680 ng/mL and the Vd [22] was 10.1 L/kg. For the same compound, the half-life [23] was 60 min, the concentration at 2 h [24] was 695 ng/g and the inhibition [5] was < 65%. The Activity (Mus musculus [25]) was “Non-toxic”, the concentration at 12 h [26] was 2650 ng/mL and the inhibition [6] was < 65%. For the same compound, the inhibition [7] was < 65%, the concentration at 2 h [27] was 2740 ng/mL and the AUC(0-t) [28] was 2930 ng·h/mL. The clearance [29] was 5.6 mL/min/kg, the inhibition in vivo at 30 mg/kg (KARPAS-299 [30]) was 45% and the inhibition in vivo at 30 mg/kg (Mus musculus [31]) was 75%. It also gave a Cmax [32] of 23 ng/mL, a bioavailability [33] of 28% and a concentration at 12 h [34] of 279 ng/g. For the same compound, the inhibition [8] was < 65%, the AUC(0-t) [35] was 72 ng·h/mL and the bioavailability [36] was 24%. For the same compound, the inhibition [9] was < 65%, the inhibition [10] was < 65% and the Vd [37] was 0.4 L/kg. For the same compound, the Cmax [38] was 2880 ng/mL, the clearance [39] was 217 mL/min/kg and the AUC(0-t) [40] was 8200 ng·h/mL. For the same compound, the inhibition [11] was < 65%, the Tmax [41] was 1 h and the half-life [42] was 54 min. The Tmax [43] was 1.8 h, the inhibition [12] was < 65% and the half-life [44] was 36 min. The Activity (Mus musculus [45]) was “Non-toxic”, the inhibition [13] was < 65% and the inhibition [14] was < 65%. For the same compound, the AUC(0-t) [46] was 110 ng·h/mL, the inhibition [15] was < 65% and the inhibition (Mus musculus [47]) was “inactive”. For the same compound, the inhibition [16] was 97%, the inhibition [17] was < 65% and the Activity (Mus musculus [48]) was “Non-toxic”.
